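Dose response: 5 concentrations. Exposure: 48 h. Format: 96-well plates. Endpoint: linear interpolation; highest concentration if not reached. GI50: concentration for 50% inhibition of growth. TGI marks complete inhibition of growth.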
Assays:
Assay in all cases: DTP human tumour cell line panel, 48 h
OVCAR-5 ovarian = system: OVCAR-5 ovarian
SNB-75 CNS = system: SNB-75 CNS
NCI-H226 lung = system: NCI-H226 lung
HCT-116 colon = system: HCT-116 colon
UACC-62 melanoma = system: UACC-62 melanoma
OVCAR-8 ovarian = system: OVCAR-8 ovarian
LOX IMVI melanoma = system: LOX IMVI melanoma
RPMI-8226 leukemia = system: RPMI-8226 leukemia
HOP-62 NSCLC = system: HOP-62 NSCLC
NCI/ADR-RES ovarian = system: NCI/ADR-RES ovarian

## CCC[CH2][Sn]([CH2]CCC)([O]C(C)=O)[O]C(C)=O
OVCAR-5 ovarian
  GI50: 1.23 µM
  TGI: 2.71 µM
SNB-75 CNS
  GI50: 1.02 µM
  TGI: 2.63 µM
NCI-H226 lung
  GI50: 1.53 µM
  TGI: 3.01 µM
HCT-116 colon
  GI50: 1.56 µM
  TGI: 3.26 µM
UACC-62 melanoma
  GI50: 1.09 µM
  TGI: 2.37 µM
OVCAR-8 ovarian
  GI50: 1.9 µM
  TGI: 4.6 µM
LOX IMVI melanoma
  GI50: 0.916 µM
  TGI: 2.4 µM
RPMI-8226 leukemia
  GI50: 0.321 µM
  TGI: 2.11 µM
HOP-62 NSCLC
  GI50: 2.17 µM
  TGI: 3.9 µM

## Nc1ncnc2c1ccn2C1OC2COP(=O)(O)OC2C1O (stereo not drawn)
OVCAR-5 ovarian
  TGI: 46.9 µM
NCI-H226 lung
  TGI: 28.5 µM
HCT-116 colon
  TGI: 10.4 µM
UACC-62 melanoma
  TGI: 1.45 µM
OVCAR-8 ovarian
  TGI: 7.94 µM
NCI/ADR-RES ovarian
  TGI: > 31.8 µM
LOX IMVI melanoma
  TGI: 1.34 µM
RPMI-8226 leukemia
  TGI: > 100 µM
HOP-62 NSCLC
  TGI: 11.2 µM

## CC(=O)/C(=C\c1ccco1)C(=O)Nc1ccccc1
HCT-116 colon
  TGI: > 100 µM
UACC-62 melanoma
  TGI: > 100 µM
OVCAR-8 ovarian
  TGI: > 100 µM
LOX IMVI melanoma
  TGI: > 100 µM
RPMI-8226 leukemia
  TGI: > 100 µM
HOP-62 NSCLC
  TGI: > 100 µM

## CC12CCC(=O)C(O1)C1C(=O)c3cc4ccccc4cc3C(=O)C12 (stereo not drawn)
OVCAR-5 ovarian
  GI50: 29.3 µM
  TGI: 69.6 µM
SNB-75 CNS
  GI50: 29.2 µM
  TGI: > 100 µM
NCI-H226 lung
  GI50: 14.4 µM
  TGI: 41.9 µM
HCT-116 colon
  GI50: 17.7 µM
  TGI: 34.6 µM
OVCAR-8 ovarian
  GI50: 22.1 µM
  TGI: 54.9 µM
NCI/ADR-RES ovarian
  GI50: 21.3 µM
  TGI: 57.2 µM
HOP-62 NSCLC
  GI50: 45 µM
  TGI: > 100 µM

## COC(=O)[C@@H]1CSC(=S)N1C(=O)C[C@H]1CC=CC[C@H]1CC(=O)Sc1ccccc1
OVCAR-5 ovarian
  TGI: 33.8 µM
SNB-75 CNS
  TGI: 29 µM
NCI-H226 lung
  TGI: 47.2 µM
HCT-116 colon
  TGI: 30.8 µM
UACC-62 melanoma
  TGI: 38.3 µM
OVCAR-8 ovarian
  TGI: 50.6 µM
LOX IMVI melanoma
  TGI: 33.1 µM
RPMI-8226 leukemia
  TGI: 61.7 µM
HOP-62 NSCLC
  TGI: 38 µM

## NCC1(N2CCOCC2)C2CCCC21CO (stereo not drawn)
OVCAR-5 ovarian
  TGI: > 100 µM
SNB-75 CNS
  TGI: > 100 µM
NCI-H226 lung
  TGI: > 100 µM
HCT-116 colon
  TGI: > 100 µM
OVCAR-8 ovarian
  TGI: > 100 µM
RPMI-8226 leukemia
  TGI: > 100 µM
HOP-62 NSCLC
  TGI: > 100 µM

## CC1CC2C(=O)NC(=O)C2c2[nH]c3ccccc3c21 (stereo not drawn)
OVCAR-5 ovarian
  TGI: > 100 µM
SNB-75 CNS
  TGI: > 100 µM
NCI-H226 lung
  TGI: > 100 µM
HCT-116 colon
  TGI: > 100 µM
OVCAR-8 ovarian
  TGI: > 100 µM
LOX IMVI melanoma
  TGI: > 100 µM
RPMI-8226 leukemia
  TGI: > 100 µM
HOP-62 NSCLC
  TGI: > 100 µM

## COC12C=CC(CC1)c1c(O)ccc(O)c12 (stereo not drawn)
OVCAR-5 ovarian
  TGI: > 100 µM
SNB-75 CNS
  TGI: > 100 µM
NCI-H226 lung
  TGI: > 100 µM
HCT-116 colon
  TGI: > 100 µM
UACC-62 melanoma
  TGI: > 100 µM
OVCAR-8 ovarian
  TGI: > 70.1 µM
RPMI-8226 leukemia
  TGI: > 100 µM
HOP-62 NSCLC
  TGI: > 100 µM

## C=C1C(=O)O[C@H]2C[C@@H](C)[C@@H]3CC(=O)OC[C@@]3(C)CC12 (stereo partly drawn)
SNB-75 CNS
  TGI: > 100 µM
HCT-116 colon
  TGI: > 100 µM
UACC-62 melanoma
  TGI: 51.9 µM
OVCAR-8 ovarian
  TGI: 48.3 µM
LOX IMVI melanoma
  TGI: 90.5 µM
RPMI-8226 leukemia
  TGI: 75.2 µM
HOP-62 NSCLC
  TGI: > 100 µM

## COc1cc(Cn2cc3c(c2)-c2oncc2CC3)cc(OC)c1OC
OVCAR-5 ovarian
  GI50: 0.0735 µM
  TGI: > 100 µM
NCI-H226 lung
  GI50: 0.256 µM
  TGI: > 100 µM
HCT-116 colon
  GI50: 0.0379 µM
  TGI: > 100 µM
UACC-62 melanoma
  GI50: 0.0362 µM
  TGI: > 81.7 µM
OVCAR-8 ovarian
  GI50: 0.0548 µM
  TGI: > 100 µM
NCI/ADR-RES ovarian
  GI50: 0.0268 µM
LOX IMVI melanoma
  GI50: 0.0716 µM
  TGI: > 100 µM
RPMI-8226 leukemia
  GI50: 0.0459 µM
  TGI: 10.4 µM
HOP-62 NSCLC
  GI50: 0.0479 µM
  TGI: > 100 µM
